The values below are quoted from earlier work in patent publication US20230218514A1, “FLOATING SUSTAINED RELEASE TABLET FORMULATION OF DROXIDOPA AND METHOD THEREOF” (priority 2022, published 2023).

Series [1] deals with mice. To be noted: mouse, in vivo.
The test system of series [2] is dogs. To be noted: dog, in vivo.
The subject of series [3] is patients.
Assay in series [4]: not given
The source holds these as a separate data set.

Series [5] deals with monkeys. To be noted: monkey, in vivo.
The test system of series [6] is rats. To be noted: rat, in vivo.
Assay in series [7]: not given
The source holds these as a separate data set.

Molecules are shown by their SMILES. Some results are limits rather than exact numbers.

For the compound `N[C@H](C(=O)O)[C@H](O)c1ccc(O)c(O)c1` [Droxidopa, (2S,3R)-2-amino-3-(3,4-dihydroxyphenyl)-3-hydroxypropanoic acid], the Protein binding is 75%. Moreover, the “Acute oral LD50” value in series [1] is recorded as “more than 5 g/kg”. Also, the “Acute oral LD50” value in series [2] is listed as “more than 5 g/kg”. Also, in series [3] (human, in vivo), the Hepatotoxicity result was “not found”. Further, in series [3] (nausea, headache, dizziness, increased B.P, hallucination and anorexia), the “Side effects, share of patients” value is recorded as 0.78%. The Solubility in series [4] is at least 3000 µg/mL. In addition, the “Stability in alkaline medium” value in series [4] (alkaline medium) is given as “highly unstable”. The “Solubility in dilute HCl” value in series [4] (dilute HCl) is “Soluble”. The “Solubility in organic solvents” value in series [4] (methanol, glacial acetic acid, ethanol, acetone, chloroform) is given as “Practically insoluble”. Moreover, the Solubility in water entry in series [4] (water) was “Slightly soluble”. The “Acute oral LD50” value in series [5] is listed as “more than 5 g/kg”. Also, the “Acute oral LD50” value in series [6] was “more than 5 g/kg”. In addition, in series [7] (in vivo), the Cmax is 3160 ng/mL, the Elimination half life was 2.5 h, the Half-life was 2 to 3 h and the Route of elimination result was “mainly eliminated through urine”. In series [7] (in vivo), the time of peak concentration (Tmax) was 1 to 4 h and the Volume of distribution was 200 L. Besides, the Oral bioavailability in series [7] (oral) is given as 90%.

As usually defined, the Solubility is how much of the substance goes into solution per volume. As usually defined, the Cmax is the maximum level reached in the sampled fluid or tissue. Usually Tmax stands for the time at which the peak concentration occurs.
